Laboratory results published in ChEMBL document CHEMBL5365416, “Identification of Ecdysteroid Sinapate Esters with COX-2 Inhibitory Effects from Fibraurea recisa Using Molecular Networking and MS2LDA” (2023).
Activity calls are given as the source filed them. The rule behind the calls is not given here.

How the values were obtained:
RAW264.7 [1] = test: Inhibition of LPS-induced NO production in mouse RAW264.7 cells at 30 uM relative to control; format: functional
RAW264.7 [2] = test: Inhibition of LPS-induced iNOS protein expression in mouse RAW264.7 cells at 30 uM incubated for 24 hrs by Western blot analysis; format: functional, cell-based
RAW264.7 [3] = test: Inhibition of LPS-induced COX2 protein expression in mouse RAW264.7 cells at 1 to 30 uM incubated for 24 hrs by Western blot analysis; format: functional, cell-based; conditions: dose 1-30 µM
RAW264.7 [4] = test: Inhibition of LPS-induced COX2 protein expression in mouse RAW264.7 cells at 0.1 to 30 uM incubated for 24 hrs by Western blot analysis; format: functional, cell-based; conditions: dose 0.1-30 µM

Row | Structure (SMILES) | inhibition at 30 µM (RAW264.7 [1]) [%] | inhibition (RAW264.7 [2]) | inhibition (RAW264.7 [3]) | inhibition (RAW264.7 [4])
1 | COc1cc(/C=C/C(=O)O[C@@H]2C[C@H]3C(=O)C=C4[C@H](CC[C@]5(C)[C@@H]([C@@](C)(O)[C@H](O)C[C@@H](C)C(C)(C)O)CC[C@@]45O)[C@@]3(C)C[C@@H]2O)cc(OC)c1O | 14.7 | inactive | inactive | 
2 | C[C@H](C[C@@H](O)[C@](C)(O)[C@H]1CC[C@@]2(O)C3=CC(=O)[C@@H]4C[C@@H](O)[C@@H](O)C[C@]4(C)[C@H]3CC[C@]12C)C(C)(C)O |  |  |  | inactive
3 | COc1cc(/C=C/C(=O)O[C@H]2C[C@@]3(C)[C@@H](C[C@H]2O)C(=O)C=C2[C@@H]3CC[C@]3(C)[C@@H]([C@@](C)(O)[C@H](O)C[C@@H](C)C(C)(C)O)CC[C@@]23O)cc(OC)c1O | 12.7 | inactive | Active | 
4 | COC(=O)/C=C/c1cc(OC)c(O)c(OC)c1 |  |  |  | inactive
